A short description of data set [1]: Bioavailability testing in rats (24 h urinary H2G recovery). The format is in vivo. As for the experimental part: The bioavailability of compounds of the invention were compared to the parent compound H2G and other H2G derivatives in a rat model. Compounds of the invention and comparative compounds were administered, per oral (by catheter into the stomach), to multiples of three individually weighed animals to give 0.1 mmol/kg of the dissolved prodrug in an aqueous (Example 4, 5, Comparative example 1–3, 5, 8), peanut oil (Comparative examples 4, 9, 10) or propylene glycol (Example 1–3, 6–12, 17, Comparative example 6, 7) vehicle dependent on the solubility of the test compound ingredient. The animals were fasted from 5 hours before to approximately 17 hours after administration and were maintained in metabolic cages. Urine was collected for the 24 hours following administration and frozen until analysis. H2G was analysed in the urine using the HPLC/UV assay of Stahle & Oberg, Antimicrob Agents Chemother. 36 No 2, 339–342 (1992), modified as follows: samples upon thawing are diluted 1:100 in aq dist H2O and filtered through an amicon filter with centrifugation at 3000 rpm for 10 minutes. Duplicate 30 μl samples are chromatographed on an HPLC column; Zorbax SB-C18; 75×4.6 mm; 3.5 micron; Mobile phase 0.05M NH4PO4, 3–4% methanol, pH 3.3–3.5; 0.5 ml/min; 254 nm, retention time for H2G at MeOH 4% and pH 3.33, ˜12.5 min. Bioavailability is calculated as the measured H2G recovery from each animal averaged over at least three animals and expressed as a percentage of the averaged 24 hour urinary H2G recovery from a group of 4 individually weighed rats respectively injected i.v. jugularis with 0.1 mmol/kg H2G in a Ringer's buffer vehicle and analysed as above.
Comparative example 1 (H2G) was from the same batch as used for preparation of Examples 1 to 12. The preparation of Comparative example 2 (monoVal-H2G) and 3 (diVal-H2G) are shown in Examples 20 and 23. […] Comparative examples 5 & 8 (Val/Ac H2G) were prepared analogously to Example 4 using acetic anhydride with relevant monovaline H2G. Comparative example 6 (Ala/stearoyl H2G) was prepared analogously to Example 6 using N-t-Boc-L-alanine in step 4. Comparative example 7 (Gly/decanoyl) was prepared analogously to Example 5 but using the step a) intermediate made with N-t-Boc-L-glycine. The preparation of Comparative examples 9 and 10 is shown in Examples 24 and 25 respectively.

A short description of data set [2]: Plasma concentration assay in rats (H2G AUC oral vs i.v.). Format: in vivo, male Sprague Dawley derived rats. The following applies: Table 1B; plasma drug assay in rats, 10 mg/kg oral in propylene glycol, H2G AUC vs 10 mg/kg i.v. H2G. As for the experimental part: A plasma concentration assay was done in male Sprague Dawley derived rats. The animals were fasted overnight prior to dosing but were permitted free access to water. Each of the compounds evaluated was prepared as a solution/suspension in propylene glycol at a concentration corresponding to 10 mg H2G/ml and shaken at room temperature for eight hours. Groups of rats (at least 4 rats in each group) received a 10 mg/kg (1 ml/kg) oral dose of each of the compounds; the dose was administered by gavage. At selected time points after dosing (0.25, 0.5, 1, 1.5, 2, 4, 6, 9, 12, 15, and 24 hours after dosing), heparinized blood samples (0.4 ml/sample) were obtained from a tail vein of each animal. The blood samples were immediately chilled in an ice bath. Within two hours of collection, the plasma was separated from the red cells by centrifugation and frozen till analysis. The components of interest were separated from the plasma proteins using acetonitrile precipitation. Following lyophilisation, and reconstitution, the plasma concentrations were determined by reverse phase HPLC with fluorescence detection. The oral uptake of H2G and other test compounds was determined by comparison of the H2G area under the curve derived from the oral dose compared to that obtained from a 10 mg/kg intravenous dose of H2G, administered to a separate group of rats. The results are depicted in Table 1B above.

Data set [3] relates to Herpes simplex virus-1 (HSV-1). Description: Antiviral activity in HSV-1-infected mouse (survival). The format is in vivo, mice. The conditions noted are these: 21 and 83 mg/kg three times daily p.o. for 5 days, relative to an equivalent dose of acyclovir. As for the experimental part: Herpes simplex virus-1 (HSV-1)-infected mouse serves as an animal model to determine the efficacy of antiviral agents in vivo. Mice inoculated intraperitoneally with HSV-1 at 1000 times the LD50 were administered either with a formulation comprising the currently marketed anti-herpes agent acyclovir (21 and 83 mg/kg in a 2% propylene glycol in sterile water vehicle, three times daily, p.o.) or the compound of Example 29 (21 and 83 mg/kg in a 2% propylene glycol in sterile water vehicle, three times daily, p.o.) for 5 consecutive days beginning 5 hours after inoculation. The animals were assessed daily for deaths. […] In the legend, the compound of the invention is denoted Ex.29 and acyclovir is denoted ACV.

Setting [4] is: Table 2, rats, 0.1 mmol/kg per oral, 24 hour urinary H2G recovery as percentage of that after 0.1 mmol/kg H2G i.v.

In data set [1] (setting [4]), `CCCCCCCCCCCCCCCCCC(=O)OCC[C@@H](CO)Cn1cnc2c(=O)[nH]c(N)nc21` [Comparative Example 10] returned a Bioavailability of 7%.

As to `Nc1nc2c(ncn2CC(CO)CCO)c(=O)[nH]1` (stereo not shown) [Comparative example 1, 9-[4-hydroxy-(2-hydroxymethyl)butyl]guanine, reference compound], the Bioavailability in data set [2] is listed as 3.8%; in data set [1] (Table 1A, urinary recovery assay of H2G from rats, oral, see Biological Example 1), 8%; in data set [1] (setting [4]) it was 8%.

Take `CCCCCCCCCCCCCCCCCC(=O)OC[C@H](CCOC(=O)[C@@H](N)[C@@H](C)CC)Cn1cnc2c(=O)[nH]c(N)nc21` [Example 7]: in data set [1] (setting [4]), the Bioavailability was 53%.

Consider `CC(=O)CCCC(=O)OC[C@H](CCOC(=O)[C@@H](N)C(C)C)Cn1cnc2c(=O)[nH]c(N)nc21` [Example 10], for which the Bioavailability in data set [1] (setting [4]) is on record as 52%.

Take `CCCCCCCCCCCCCCCCCC(=O)OC[C@H](CCOC(=O)[C@@H](N)C(C)C)Cn1cnc2c(=O)[nH]c(N)nc21.Cl` [Example 29, (R)-9-[(2-stearoyloxymethyl)-4-(L-valyloxy)butyl]guanine monohydrochloride]: the “percentage of mice surviving the HSV-1 infection (FIG. 2)” value in data set [3] is listed as “significantly greater”.
